Results taken from patent US9290464B2 (priority 2010, dated 2016).

Columns and labels:
cytochrome c = assay: Release of cytochrome c into cytoplasm (western blot) in MPP+-treated cells; type: cell-based, human; conditions: MPP+-added neurons; FIG. 17
From the text: In addition, apoptosis is known to be caused by mechanisms of release of cytochrome c from mitochondria and activation of caspase 3 (The New England journal of Medicine, 348:1365-1375 (2003)). To confirm whether or not the stability of the transmembrane potential of mitochondria by the treatment of CBI is associated with anti-apoptosis of neurons, cell extracts were obtained from the groups of cells, and thus the amount of cytochrome c and the activity of caspase 3 in the cell cytoplasm were measured.
SH-SY5Y cells were incubated under the same conditions as described in Example 7, and then washed with PBS. A protease inhibitor cocktail (Roche) and a phosphatase inhibitor cocktail (Roche) were added to a […] buffer (20 mM HEPES, 10 mM KCl, 2 mM MgCl2, 1 mM EDTA), and the SH-SY5Y cells were treated with 100 ul of the resulting solution and then suspended uniformly. The resultant was maintained on ice for 30 minutes, and then centrifuged at 12,000 rpm for 20 minutes. Subsequently, the same amount of the supernatant was loaded onto a SDS-PAGE gel followed by electrophoresis, the gel was transferred onto a nitrocellulose membrane, the membrane was blotted using cytochrome c (Santacruz, sc13156) diluted to 1:2000 by using a well-known method in the art, and the expression of cytochrome c was evaluated using ECL kit (Amersham Pharmacia).

[1] = tested on: MAO-B-deficient human neuroblastoma SH-SY5Y cells; assay: Reactive oxygen species (DCF-DA staining) in MPP+-treated cells; type: cell-based; conditions: 2 mM MPP+, 50 nM, 24 hours; FIGS. 19 and 20
Procedure: In this embodiment, MAO-B-deficient human neuroblastoma SH-SY5Y cells (Korean Cell Line Bank) were used. The cells were cultured in a DMEM medium at 37° C. with 5% of CO2 for 24 hours. The cultured cells were divided into three groups, 2 mM of MPP^+ was added to each group, one of the three groups was treated with 50 nM of CBI, one of the other two groups was treated with 50 nM of rasagiline, and the three groups were further incubated with 5% of CO2 at 37° C. for 24 hours. The group with only MPP^+ added thereto was incubated under the same conditions as described above. Subsequently, the cells were stained with 2,7-dichlorofluorescein diacetate (DCF-DA), which is a fluorescence dye capable of detecting reactive oxygen species, and then observed using a confocal microscope (Nikon Co., Japan).

MPTP-induced monkey = assay: Parkinson's disease score in MPTP-induced monkey; type: in vivo, Macaque monkeys; conditions: 1 mg/kg oral for 4 weeks after MPTP; compared with group given 1 mg/kg rasagiline; FIG. 1
Procedure: Macaque monkeys (n=35, 3 to 4-year-old) were used as an experimental model. The macaque monkeys were divided into three groups, and 0.2 mg/kg of MPTP was administered to each group (once a day, every day, until Parkinson's disease score reaches 8 or for 14 days) via intravenous injection. […] In addition, to confirm the effect of […] as a dopamine agonist, dopamine transporters existing in medial striatum and caudal striatum taken from the MPTP-induced monkey model were subjected to a dopamine transporter binding assay.
The extent of Parkinson's disease was measured by analyzing videotaped behaviors of each group of monkeys, based on four standards: a) range of movement, b) hypokinesia, c) extent of abnormal posture, and d) tremor. A Parkinson's disease score was evaluated by the sum of (4-range of movement)+hypokinesia+extent of abnormal posture+tremor. […] The Parkinson's disease score was measured for 10 minutes every 30 minutes through 2 hours. That is, the maximum value of the highest Parkinson's disease score is 40. Meanwhile, the measurement method performed based on the four standards was as follows, and evaluated scores below represent representative behaviors observed through observation periods: […]

caspase 3 = assay: Activity of caspase 3/7 (Apo-ONE) in MPP+-treated cells; type: cell-based, human; conditions: 2 mM MPP+, 24 hours; CBI 1, 5, 10 and 50 nM, rasagiline 50 nM; FIG. 18
Procedure: SH-SY5Y cells were incubated in a 96-well plate at a concentration of 5×10^5 cells/well under the same conditions as described above, the cells were treated with 2 mM of MPP^+ and CBI (1, 5, 10 and 50 nM) or rasagiline (50 nM), and the resulting cells were incubated for 24 hours. Subsequently, 100 μl of Apo-ONE caspase 3/7 reagent (Promega, G7790) was added thereto and mixed therewith, and the resultant was further incubated for 4 hours. After the incubation was terminated, fluorescence was measured at an excitation wavelength of 495 nm and an emission wavelength of 521 nm by using a fluorescence plate reader (GeminiXPS, Molecular Devices).

MPTP-induced mouse = assay: Concentration of dopamine in striatum of MPTP-induced mouse (HPLC); type: in vivo, C57BL/6 mice; conditions: 1 mg/kg oral once a day, FIG. 4
Procedure: 7 days after the compounds described above are respectively administered to the three groups, the mice in each group were sacrificed by cervical dislocation and brain tissues were immediately taken out of the mice. Striatum was collected from the brain tissue, 0.5 ml of a HPLC assay diluent (0.1 M HClO4, 0.1 mM EDTA) was added to the striatum, and a tissue homogenate was then prepared using an ultrasonic processor. The homogenate was centrifuged at 12,000 rpm for 15 minutes, and the supernatant was filtered with a nitrocellulose filter (0.2 um, Millipore). For HPLC analysis, HR-80 column (80 mm×4.6 mm, particle size: 3 μm ESA, USA) was used, the flow rate of a mobile phase (0.07 M monobasic sodium phosphate, 1 mM sodium octasulfonic acid, 0.1 uM EDTA, 5% acetonitrile, pH 3.2) was maintained at 0.7 ml/min, and the electrode potential of an electrochemical detector (Coulochem III, ESA, USA) was at E1=−100 mV, E2=350 mV.

[2] = tested on: catalase, superoxide dismutase (SOD) and glutathione peroxidase (GPx); assay: Activities of antioxidative enzymes in MPP+-treated cells; type: cell-based, human; conditions: 2 mM MPP+, 24 hours; FIG. 21
Procedure: In this embodiment, MAO-B-deficient human neuroblastoma SH-SY5Y cells (Korean Cell Line Bank) were used. The SH-SY5Y cells were distributed into a 6-well plate at a concentration of 1.8×10^5 cells/well, and then incubated with 5% of CO2 at 37° C. for 24 hours. The resulting cells were divided into three groups, 2 mM of MPP^+ was added to each group, two of the three groups were respectively treated 0.1, and the resultant was further incubated with 5% of CO2 at 37° C. for 24 hours. The control group which was not treated with MPP^+ was incubated under the same conditions as described above. Subsequently, cell extracts were obtained from the cells, and thus the activities of antioxidative enzymes, i.e., catalase, superoxide dismutase (SOD) and glutathione peroxidase (GPx) were measured.

NGF = assay: Amount of NGF mRNA in striatum of mouse without neurotoxin; type: in vivo, C57BL/6 mice; conditions: 1 mg/kg oral once a day for 8 days each; FIG. 15
Procedure: Next day after the last day of administration, striatum and substantia nigra tissues were taken out of each group of mice. mRNA was extracted from the cell of the taken tissue, and thus the amount of mRNA of NGF was measured by real-time RT-PCR.

Compound: NC(=O)OCc1cc(-c2ccc(OCc3ccccc3)cc2)no1 [CBI, carbamic acid 3-(4-benzyloxy-phenyl)-isoxazole-5-yl methylester]
- amount of cytochrome c in the cytoplasm (cytochrome c): decreased
- amount of cytochrome c released from mitochondria compared with same amount of rasagiline (cytochrome c): smaller
- reactive oxygen species [1]: significantly decreased
- extent of Parkinson's disease (Parkinson's disease score) (MPTP-induced monkey): significantly decreased extent of Parkinson's disease
- activity of caspase 3 (caspase 3): reduced
- restoration of the concentration of dopamine in striatum compared with normal mice (MPTP-induced mouse): about 70%
- activity of the antioxidative enzymes decreased by MPP+ [2]: an increase in a decreased activity of the antioxidative enzymes
- expression of NGF in the striatum compared with rasagiline group (NGF): significantly higher
